ChEMBL document CHEMBL4806959, “Antagonistic peptides for frizzled-1 and frizzled-2” (2015)
The source made the active and inactive calls. The rule behind the calls is not given here. Residues, ends and D or L forms follow the SMILES beside them.

Experiments:
Frizzled-2 [1] = biological target: T1, Frizzled-2 (Homo sapiens, UniProt Q14332); test: Antagonist activity at Wnt3a-stimulated frizzled-2 (unknown origin) expressed in human HEK293superTOP flash cells incubated for 24 hrs by luciferase reporter gene assay; type: functional, cell-based; settings: HEK293
Target sequence in this assay (Q14332 24-565 limits assumed): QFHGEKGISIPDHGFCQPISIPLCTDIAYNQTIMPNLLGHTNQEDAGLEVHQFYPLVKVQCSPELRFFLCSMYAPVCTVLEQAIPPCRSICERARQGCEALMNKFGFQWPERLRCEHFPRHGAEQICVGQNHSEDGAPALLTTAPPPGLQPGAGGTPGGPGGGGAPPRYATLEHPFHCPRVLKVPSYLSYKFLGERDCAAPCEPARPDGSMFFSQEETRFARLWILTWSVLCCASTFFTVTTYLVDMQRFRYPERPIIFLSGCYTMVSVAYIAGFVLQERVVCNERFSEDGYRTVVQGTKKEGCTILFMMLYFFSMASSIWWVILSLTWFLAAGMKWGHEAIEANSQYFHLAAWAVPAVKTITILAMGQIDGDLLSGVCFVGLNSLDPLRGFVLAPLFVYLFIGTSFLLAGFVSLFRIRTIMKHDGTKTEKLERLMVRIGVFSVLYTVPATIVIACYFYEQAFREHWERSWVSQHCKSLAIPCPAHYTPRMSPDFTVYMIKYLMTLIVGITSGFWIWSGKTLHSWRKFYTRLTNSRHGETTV

[2] = biological target: Frizzled-1 (Homo sapiens) (UniProt Q9UP38); test: Antagonist activity at Wnt3a-stimulated frizzled-1 (unknown origin) expressed in human HEK293superTOP flash cells incubated for 24 hrs by luciferase reporter gene assay; type: functional, cell-based; settings: HEK293
Chain of Frizzled-1 (Homo sapiens) (Q9UP38 70-647 limits assumed): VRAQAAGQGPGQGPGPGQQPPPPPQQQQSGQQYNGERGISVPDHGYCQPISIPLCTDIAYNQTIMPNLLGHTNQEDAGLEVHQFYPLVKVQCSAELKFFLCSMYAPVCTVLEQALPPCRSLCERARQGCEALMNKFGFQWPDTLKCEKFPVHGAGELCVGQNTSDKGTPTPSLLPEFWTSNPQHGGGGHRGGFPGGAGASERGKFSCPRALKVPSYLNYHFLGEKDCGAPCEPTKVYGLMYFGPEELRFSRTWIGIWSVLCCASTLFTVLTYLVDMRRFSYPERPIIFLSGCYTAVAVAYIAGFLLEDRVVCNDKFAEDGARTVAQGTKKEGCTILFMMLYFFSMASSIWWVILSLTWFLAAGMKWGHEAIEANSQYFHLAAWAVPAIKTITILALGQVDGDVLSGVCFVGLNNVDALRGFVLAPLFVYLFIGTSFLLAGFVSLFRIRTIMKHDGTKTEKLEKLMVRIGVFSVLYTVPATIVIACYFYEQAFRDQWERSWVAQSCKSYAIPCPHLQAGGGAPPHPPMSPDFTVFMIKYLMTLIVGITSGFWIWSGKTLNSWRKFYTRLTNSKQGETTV

Frizzled-2 [3] = biological target: T1, Frizzled-2; test: Agonist activity at frizzled-2 (unknown origin) expressed in human HEK293superTOP flash cells by luciferase reporter gene assay; type: functional, cell-based; settings: hek293
Target sequence in this assay (Q14332 whole entry): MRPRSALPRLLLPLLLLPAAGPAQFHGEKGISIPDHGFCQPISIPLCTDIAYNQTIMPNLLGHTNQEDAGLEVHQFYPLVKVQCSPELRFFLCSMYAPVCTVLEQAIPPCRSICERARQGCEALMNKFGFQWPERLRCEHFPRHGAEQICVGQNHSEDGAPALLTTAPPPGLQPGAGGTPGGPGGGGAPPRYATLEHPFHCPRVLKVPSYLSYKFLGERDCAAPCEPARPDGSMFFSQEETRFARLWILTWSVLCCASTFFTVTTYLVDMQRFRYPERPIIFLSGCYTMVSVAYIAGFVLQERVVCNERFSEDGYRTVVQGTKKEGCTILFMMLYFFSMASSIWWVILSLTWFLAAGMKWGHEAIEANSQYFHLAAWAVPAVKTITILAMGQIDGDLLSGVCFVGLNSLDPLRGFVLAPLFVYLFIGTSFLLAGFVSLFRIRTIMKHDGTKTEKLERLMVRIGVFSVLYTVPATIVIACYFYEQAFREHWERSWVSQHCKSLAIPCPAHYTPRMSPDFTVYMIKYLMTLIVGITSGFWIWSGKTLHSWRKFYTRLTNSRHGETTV

[4] = biological target: Frizzled-1 (Homo sapiens) (UniProt Q9UP38); test: Agonist activity at frizzled-1 (unknown origin) expressed in human HEK293superTOP flash cells by luciferase reporter gene assay; type: functional, cell-based; settings: HEK293
[5] = biological target: Frizzled-1 (Rattus norvegicus) (UniProt Q08463); test: Antagonist activity at Wnt3a-stimulated rat frizzled-1 expressed in CHO cells up to 10 uM incubated for 24 hrs by luciferase reporter gene assay; type: cell-based; settings: dose microM <=10, time 24.0 hrs
Chain of Frizzled-1 (Rattus norvegicus) (Q08463 whole entry): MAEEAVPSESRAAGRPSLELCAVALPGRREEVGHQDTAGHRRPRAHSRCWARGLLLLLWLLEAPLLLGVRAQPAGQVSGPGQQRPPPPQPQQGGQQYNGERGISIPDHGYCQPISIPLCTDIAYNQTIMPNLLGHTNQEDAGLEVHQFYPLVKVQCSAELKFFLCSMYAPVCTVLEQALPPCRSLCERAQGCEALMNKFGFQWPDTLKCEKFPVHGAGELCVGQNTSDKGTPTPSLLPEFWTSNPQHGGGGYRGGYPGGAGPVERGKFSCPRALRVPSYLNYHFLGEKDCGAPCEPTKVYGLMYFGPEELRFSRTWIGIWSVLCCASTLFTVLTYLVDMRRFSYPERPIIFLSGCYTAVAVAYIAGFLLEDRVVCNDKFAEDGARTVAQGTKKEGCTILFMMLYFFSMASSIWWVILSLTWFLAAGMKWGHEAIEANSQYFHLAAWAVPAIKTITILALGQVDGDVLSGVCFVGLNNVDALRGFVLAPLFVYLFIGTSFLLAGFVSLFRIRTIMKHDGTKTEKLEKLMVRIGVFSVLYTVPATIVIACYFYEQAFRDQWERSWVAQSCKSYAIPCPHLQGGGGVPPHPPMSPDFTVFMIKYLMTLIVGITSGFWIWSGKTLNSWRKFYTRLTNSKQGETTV

[6] = biological target: Frizzled-2 (Rattus norvegicus) (UniProt Q08464); test: Antagonist activity at Wnt3a-stimulated rat frizzled-2 expressed in CHO cells up to 10 uM incubated for 24 hrs by luciferase reporter gene assay; type: cell-based; settings: dose microM <=10, time 24.0 hrs
Chain of Frizzled-2 (Rattus norvegicus) (Q08464 29-570 limits assumed): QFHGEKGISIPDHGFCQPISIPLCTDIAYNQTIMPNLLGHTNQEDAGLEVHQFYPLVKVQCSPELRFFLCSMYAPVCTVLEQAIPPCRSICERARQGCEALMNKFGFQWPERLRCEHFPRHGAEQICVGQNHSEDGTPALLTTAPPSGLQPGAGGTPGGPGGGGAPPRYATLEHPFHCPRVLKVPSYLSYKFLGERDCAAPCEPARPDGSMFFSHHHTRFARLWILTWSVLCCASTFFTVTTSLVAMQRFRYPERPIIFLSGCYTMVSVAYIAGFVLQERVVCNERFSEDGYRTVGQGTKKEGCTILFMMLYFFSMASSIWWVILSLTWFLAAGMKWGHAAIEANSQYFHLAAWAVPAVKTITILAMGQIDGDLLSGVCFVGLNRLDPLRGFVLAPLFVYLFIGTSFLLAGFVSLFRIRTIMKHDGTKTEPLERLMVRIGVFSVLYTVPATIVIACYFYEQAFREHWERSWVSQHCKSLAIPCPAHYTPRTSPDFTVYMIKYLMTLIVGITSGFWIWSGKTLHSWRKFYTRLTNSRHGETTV

[7] = biological target: Frizzled-1 (Rattus norvegicus) (UniProt Q08463); test: Antagonist activity at Wnt3a-stimulated rat frizzled-1 expressed in African green monkey COS7 cells up to 10 uM incubated for 24 hrs by luciferase reporter gene assay; type: cell-based; settings: dose microM <=10, time 24.0 hrs
[8] = biological target: Frizzled-2 (Rattus norvegicus) (UniProt Q08464); test: Antagonist activity at Wnt3a-stimulated rat frizzled-2 expressed in African green monkey COS7 cells up to 10 uM incubated for 24 hrs by luciferase reporter gene assay; type: cell-based; settings: dose microM <=10, time 24.0 hrs
Frizzled-2 [9] = biological target: T1, Frizzled-2; test: Antagonist activity at Wnt3a-stimulated frizzled-2 (unknown origin) expressed in human HEK293superTOP flash cells at 10 nM incubated for 24 hrs by luciferase reporter gene assay; type: functional, cell-based; settings: HEK293
Target sequence in this assay (Q14332 24-565 limits assumed): as the sequence (Q14332 24-565 limits assumed) above

[10] = biological target: Frizzled-1 (Homo sapiens) (UniProt Q9UP38); test: Antagonist activity at Wnt3a-stimulated frizzled-1 (unknown origin) expressed in human HEK293superTOP flash cells at 10 nM incubated for 24 hrs by luciferase reporter gene assay; type: functional, cell-based; settings: HEK293
[11] = biological target: Frizzled-1 (Rattus norvegicus) (UniProt Q08463); test: Agonist activity at rat frizzled-1 expressed in human HEK293superTOP flash cells by luciferase reporter gene assay; type: cell-based; settings: HEK293
[12] = biological target: Frizzled-2 (Rattus norvegicus) (UniProt Q08464); test: Agonist activity at rat frizzled-2 expressed in human HEK293superTOP flash cells by luciferase reporter gene assay; type: cell-based; settings: HEK293
[13] = biological target: Frizzled-1 (Rattus norvegicus) (UniProt Q08463); test: Agonist activity at rat frizzled-1 expressed in CHO cells by luciferase reporter gene assay; type: cell-based
[14] = biological target: Frizzled-2 (Rattus norvegicus) (UniProt Q08464); test: Agonist activity at rat frizzled-2 expressed in CHO cells by luciferase reporter gene assay; type: cell-based
[15] = biological target: Frizzled-1 (Rattus norvegicus) (UniProt Q08463); test: Agonist activity at rat frizzled-1 expressed in African green monkey COS7 cells by luciferase reporter gene assay; type: cell-based
[16] = biological target: Frizzled-2 (Rattus norvegicus) (UniProt Q08464); test: Agonist activity at rat frizzled-2 expressed in African green monkey COS7 cells by luciferase reporter gene assay; type: cell-based

CC(=O)N[C@@H](CS)C(=O)N[C@@H](CCCCN)C(=O)N[C@@H](CS)C(=O)N[C@@H](Cc1cnc[nH]1)C(=O)NCC(=O)N[C@H](C(=O)N[C@@H](CO)C(=O)NCC(=O)N[C@@H](CO)C(=O)N[C@@H](CS)C(=O)N[C@H](C(=O)N[C@H](C(=O)N[C@@H](CCCCN)C(=O)N[C@H](C(=O)N[C@@H](CS)C(=O)N[C@@H](Cc1c[nH]c2ccccc12)C(N)=O)[C@@H](C)O)C(C)C)[C@@H](C)O)C(C)C (Ac-CKCHGVSGSCTVKTCW-NH2)
inhibition (Frizzled-2 [1]): inactive | inhibition [2]: inactive | EC50 (Frizzled-2 [3]): Not Active | Activity [4]: inactive

CSCC[C@H](NC(=O)CNC(=O)[C@H](CO)NC(=O)[C@H](CCCCN)NC(=O)[C@H](CC(N)=O)NC(=O)[C@H](CS)NC(C)=O)C(=O)N[C@@H](CC(=O)O)C(=O)NCC(=O)N[C@@H](CS)C(=O)N[C@@H](CCC(=O)O)C(=O)N[C@@H](CC(C)C)C(N)=O (Ac-CNKSGMDGCEL-NH2)
inhibition (Frizzled-2 [1]): inactive | inhibition [2]: inactive | EC50 (Frizzled-2 [3]): Not Active | Activity [4]: inactive

CSCC[C@H](NC(=O)CNC(=O)[C@H](CCC(=O)O)NC(=O)[C@H](CO)NC(=O)[C@@H](NC(=O)[C@H](CCCCN)NC(=O)[C@H](CC(N)=O)NC(=O)[C@H](CS)NC(C)=O)[C@@H](C)O)C(=O)N[C@@H](CC(=O)O)C(=O)NCC(=O)N[C@@H](CS)C(=O)N[C@@H](C)C(=O)N[C@@H](C)C(N)=O (Ac-CNKTSEGMDGCAA-NH2)
inhibition [5]: inactive | inhibition [6]: inactive | inhibition [7]: inactive | inhibition [8]: inactive | inhibition (Frizzled-2 [9]): inactive | inhibition [10]: inactive

CSCC[C@H](NC(=O)CNC(=O)[C@H](CCC(=O)O)NC(=O)[C@H](CO)NC(=O)[C@@H](NC(=O)[C@H](CCCCN)NC(=O)[C@H](CC(N)=O)NC(=O)[C@H](CS)NC(C)=O)[C@@H](C)O)C(=O)N[C@@H](CC(=O)O)C(=O)NCC(=O)N[C@@H](CS)C(=O)N[C@@H](C)C(=O)N[C@@H](CC(C)C)C(N)=O (Ac-CNKTSEGMDGCAL-NH2)
inhibition [5]: inactive | inhibition [6]: inactive | inhibition [7]: inactive | inhibition [8]: inactive | inhibition (Frizzled-2 [9]): inactive | inhibition [10]: inactive

CSCC[C@H](NC(=O)CNC(=O)[C@H](CCC(=O)O)NC(=O)[C@H](CO)NC(=O)[C@@H](NC(=O)[C@H](CCCCN)NC(=O)[C@H](CC(N)=O)NC(=O)[C@H](CS)NC(C)=O)[C@@H](C)O)C(=O)N[C@@H](CC(=O)O)C(=O)NCC(=O)N[C@@H](CS)C(=O)N[C@@H](CCC(=O)O)C(=O)N[C@@H](C)C(N)=O (Ac-CNKTSEGMDGCEA-NH2)
inhibition [5]: inactive | inhibition [6]: inactive | inhibition [7]: inactive | inhibition [8]: inactive | inhibition (Frizzled-2 [9]): inactive | inhibition [10]: inactive

CC(=O)N[C@@H](CC(=O)O)C(=O)N[C@@H](CC(C)C)C(=O)N[C@H](C(=O)N[C@@H](Cc1ccc(O)cc1)C(=O)N[C@@H](Cc1ccccc1)C(=O)N[C@@H](CCC(=O)O)C(=O)N[C@@H](CC(C)C)C(=O)N[C@@H](CO)C(=O)N1CCC[C@H]1C(=O)N[C@@H](CC(=O)O)C(=O)N[C@@H](Cc1ccccc1)C(=O)N[C@@H](CS)C(=O)N[C@@H](C)C(N)=O)C(C)C (Ac-DLVYFELSPDFCA-NH2)
inhibition (Frizzled-2 [1]): inactive | inhibition [2]: inactive | EC50 (Frizzled-2 [3]): Not Active | Activity [4]: inactive

CC[C@H](C)[C@H](NC(=O)[C@H](CC(N)=O)NC(=O)[C@H](CC(=O)O)NC(=O)[C@H](CO)NC(=O)[C@H](CS)NC(=O)[C@H](CCC(=O)O)NC(=O)CNC(=O)[C@H](Cc1c[nH]c2ccccc12)NC(=O)[C@H](CCC(=O)O)NC(=O)[C@H](Cc1c[nH]c2ccccc12)NC(=O)[C@H](CC(=O)O)NC(=O)CNC(C)=O)C(N)=O (Ac-GDWEWGECSDNI-NH2)
inhibition (Frizzled-2 [1]): inactive | inhibition [2]: inactive | EC50 (Frizzled-2 [3]): Not Active | Activity [4]: inactive

CC[C@H](C)[C@H](NC(=O)CNC(C)=O)C(=O)N[C@@H](CCCCN)C(=O)N[C@@H](CCC(=O)O)C(=O)N[C@@H](CS)C(=O)N[C@@H](CCC(N)=O)C(=O)N[C@@H](Cc1ccc(O)cc1)C(=O)N[C@@H](CCC(N)=O)C(=O)N[C@@H](Cc1ccccc1)C(=O)N[C@@H](CCCNC(=N)N)C(=O)N[C@@H](Cc1c[nH]cn1)C(=O)N[C@@H](CCCNC(=N)N)C(=O)N[C@@H](CCCNC(=N)N)C(=O)N[C@@H](Cc1c[nH]c2ccccc12)C(=O)N[C@@H](CC(N)=O)C(=O)N[C@@H](CS)C(=O)N[C@@H](CO)C(=O)N[C@H](C(=O)N[C@H](C(=O)N[C@@H](CC(=O)O)C(N)=O)C(C)C)[C@@H](C)O (Ac-GIKECQYQFRHRRWNCSTVD-NH2)
Activity [11]: inactive | Activity [12]: inactive | Activity [13]: inactive | Activity [14]: inactive | Activity [15]: inactive | Activity [16]: inactive

CC(=O)NCC(=O)N[C@@H](CO)C(=O)N[C@@H](CS)C(=O)N[C@@H](CO)C(=O)N[C@@H](CC(C)C)C(=O)N[C@@H](CCCCN)C(=O)N[C@H](C(=O)N[C@@H](CS)C(=O)N[C@@H](Cc1c[nH]c2ccccc12)C(=O)N[C@@H](CC(C)C)C(=O)N[C@@H](CCC(N)=O)C(=O)N[C@@H](CC(C)C)C(=O)N[C@@H](C)C(=O)N[C@@H](CC(=O)O)C(N)=O)[C@@H](C)O (Ac-GSCSLKTCWLQLAD-NH2)
Activity [11]: inactive | Activity [12]: inactive | Activity [13]: inactive | Activity [14]: inactive | Activity [15]: inactive | Activity [16]: inactive

CC(=O)NCC(=O)N[C@@H](CO)C(=O)N[C@@H](CCCCN)C(=O)NCC(=O)N[C@H](C(=O)N[C@@H](CCC(N)=O)C(=O)NCC(=O)N[C@@H](CCCNC(=N)N)C(=O)N[C@@H](C)C(=O)N[C@@H](CS)C(=O)N[C@@H](CC(N)=O)C(N)=O)[C@@H](C)O (Ac-GSKGTQGRACN-NH2)
inhibition (Frizzled-2 [1]): inactive | inhibition [2]: inactive | EC50 (Frizzled-2 [3]): Not Active | Activity [4]: inactive

CC[C@H](C)[C@H](NC(C)=O)C(=O)N[C@@H](CCC(=O)O)C(=O)N[C@@H](CCC(=O)O)C(=O)N[C@@H](CS)C(=O)N[C@@H](CCC(N)=O)C(=O)N[C@@H](Cc1cnc[nH]1)C(=O)N[C@@H](CCC(N)=O)C(=O)N[C@@H](Cc1ccccc1)C(=O)N[C@@H](CCCNC(=N)N)C(=O)N[C@@H](CC(=O)O)C(=O)N[C@@H](CCCNC(=N)N)C(=O)N[C@@H](CCCNC(=N)N)C(=O)N[C@@H](Cc1c[nH]c2ccccc12)C(=O)N[C@@H](CC(N)=O)C(=O)N[C@@H](CS)C(N)=O (Ac-IEECQHQFRDRRWNC-NH2)
inhibition (Frizzled-2 [1]): inactive | inhibition [2]: inactive | EC50 (Frizzled-2 [3]): Not Active | Activity [4]: inactive

CSCC[C@H](NC(C)=O)C(=O)N[C@@H](CC(N)=O)C(=O)N[C@@H](CCCNC(=N)N)C(=O)N[C@@H](Cc1cnc[nH]1)C(=O)N[C@@H](CC(N)=O)C(=O)N[C@@H](CC(N)=O)C(=O)N[C@@H](CCC(=O)O)C(=O)N[C@@H](C)C(=O)NCC(=O)N[C@@H](CCCNC(=N)N)C(N)=O (Ac-MNRHNNEAGR-NH2)
inhibition (Frizzled-2 [1]): inactive | inhibition [2]: inactive | EC50 (Frizzled-2 [3]): Not Active | Activity [4]: inactive

CC[C@H](C)[C@H](NC(=O)CNC(=O)[C@H](Cc1cnc[nH]1)NC(=O)[C@H](CO)NC(=O)[C@H](CO)NC(=O)[C@@H](NC(=O)[C@H](CC(N)=O)NC(=O)[C@@H](N)CS)C(C)C)C(=O)N[C@@H](CC(=O)O)C(=O)NCC(=O)N[C@@H](CS)C(=O)N[C@@H](CC(=O)O)C(=O)N[C@@H](CC(C)C)C(=O)O (H-CNVSSHGIDGCDL-OH)
inhibition [5]: inactive | inhibition [6]: inactive | inhibition [7]: inactive | inhibition [8]: inactive | inhibition (Frizzled-2 [9]): inactive | inhibition [10]: inactive
